Laboratory results from the supplement of paper PMC10307832.

Key:
Experiment in all cases: relative viability (nuclei count vs DMSO), 5 days (fraction); higher = more cells survive
Imatinib = compound: Cc1ccc(NC(=O)c2ccc(CN3CCN(C)CC3)cc2)cc1Nc1nccc(-c2cccnc2)n1 [Imatinib]
How it was run: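 After an overnight hold at 37 °C, lung cancer cell lines in 1536-well plates were pinned with five library-drug doses (not always all listed), each √10 from the next, on vehicle-anchored plates. The cells stayed 5 days without fresh medium, then a one-step fix, permeabilisation and Hoechst stain preceded 4× imaging and MetaXpress nuclear counts. A plate passed only with control CV under 25% and at least one doubling. Viability is the median, over plates, of treated-well nuclei relative to vehicle-well nuclei.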

Imatinib + Tozasertib = compound: Cc1ccc(NC(=O)c2ccc(CN3CCN(C)CC3)cc2)cc1Nc1nccc(-c2cccnc2)n1 [Imatinib] + Cc1cc(Nc2cc(N3CCN(C)CC3)nc(Sc3ccc(NC(=O)C4CC4)cc3)n2)n[nH]1 [Tozasertib] (partner 0.1 µM)
How it was run: (§1)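 Relative viability equals treated-well nuclei counts divided by vehicle-well nuclei counts. Counts came from 4× images of lung cancer cell lines grown in 1536-well plates for 5 days after pin-tool dosing on the day after seeding. Dosing used one drug alone or a fixed anchor-drug dose plus five library-drug doses (not always all listed) in √10 steps, and values are medians of duplicate plates.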

Imatinib + Phenformin = compound: Cc1ccc(NC(=O)c2ccc(CN3CCN(C)CC3)cc2)cc1Nc1nccc(-c2cccnc2)n1 [Imatinib] + N=C(N)NC(=N)NCCc1ccccc1 [Phenformin] (partner 250 µM)
How it was run: as §1

Imatinib + Foretinib = compound: Cc1ccc(NC(=O)c2ccc(CN3CCN(C)CC3)cc2)cc1Nc1nccc(-c2cccnc2)n1 [Imatinib] + COc1cc2c(Oc3ccc(NC(=O)C4(C(=O)Nc5ccc(F)cc5)CC4)cc3F)ccnc2cc1OCCCN1CCOCC1 [Foretinib] (partner 0.25 µM)
How it was run: as §1

Imatinib + Dasatinib = compound: Cc1ccc(NC(=O)c2ccc(CN3CCN(C)CC3)cc2)cc1Nc1nccc(-c2cccnc2)n1 [Imatinib] + Cc1nc(Nc2ncc(C(=O)Nc3c(C)cccc3Cl)s2)cc(N2CCN(CCO)CC2)n1 [Dasatinib] (partner 0.075 µM)
How it was run: as §1

Imatinib + Luminespib = compound: Cc1ccc(NC(=O)c2ccc(CN3CCN(C)CC3)cc2)cc1Nc1nccc(-c2cccnc2)n1 [Imatinib] + CCNC(=O)c1noc(-c2cc(C(C)C)c(O)cc2O)c1-c1ccc(CN2CCOCC2)cc1 [Luminespib] (partner 0.01 µM)
How it was run: as §1

Imatinib + OSI-027 = compound: Cc1ccc(NC(=O)c2ccc(CN3CCN(C)CC3)cc2)cc1Nc1nccc(-c2cccnc2)n1 [Imatinib] + COc1cccc2cc(-c3nc([C@H]4CC[C@H](C(=O)O)CC4)n4ncnc(N)c34)[nH]c12 [OSI-027] (partner 0.5 µM)
How it was run: as §1

Imatinib + Decitabine = compound: Cc1ccc(NC(=O)c2ccc(CN3CCN(C)CC3)cc2)cc1Nc1nccc(-c2cccnc2)n1 [Imatinib] + Nc1ncn([C@H]2C[C@H](O)[C@@H](CO)O2)c(=O)n1 [Decitabine] (partner 2 µM)
How it was run: as §1

Imatinib + Pictilisib = compound: Cc1ccc(NC(=O)c2ccc(CN3CCN(C)CC3)cc2)cc1Nc1nccc(-c2cccnc2)n1 [Imatinib] + CS(=O)(=O)N1CCN(Cc2cc3nc(-c4cccc5[nH]ncc45)nc(N4CCOCC4)c3s2)CC1 [Pictilisib] (partner 1 µM)
How it was run: as §1

Imatinib + Lapatinib = compound: Cc1ccc(NC(=O)c2ccc(CN3CCN(C)CC3)cc2)cc1Nc1nccc(-c2cccnc2)n1 [Imatinib] + CS(=O)(=O)CCNCc1ccc(-c2ccc3ncnc(Nc4ccc(OCc5cccc(F)c5)c(Cl)c4)c3c2)o1 [Lapatinib] (partner 2 µM)
How it was run: as §1

Imatinib + Navitoclax = compound: Cc1ccc(NC(=O)c2ccc(CN3CCN(C)CC3)cc2)cc1Nc1nccc(-c2cccnc2)n1 [Imatinib] + CC1(C)CCC(c2ccc(Cl)cc2)=C(CN2CCN(c3ccc(C(=O)NS(=O)(=O)c4ccc(N[C@H](CCN5CCOCC5)CSc5ccccc5)c(S(=O)(=O)C(F)(F)F)c4)cc3)CC2)C1 [Navitoclax] (partner 0.5 µM)
How it was run: as §1

Imatinib + Olaparib = compound: Cc1ccc(NC(=O)c2ccc(CN3CCN(C)CC3)cc2)cc1Nc1nccc(-c2cccnc2)n1 [Imatinib] + O=C(c1cc(Cc2n[nH]c(=O)c3ccccc23)ccc1F)N1CCN(C(=O)C2CC2)CC1 [Olaparib] (partner 8 µM)
How it was run: as §1

Imatinib + Alpelisib = compound: Cc1ccc(NC(=O)c2ccc(CN3CCN(C)CC3)cc2)cc1Nc1nccc(-c2cccnc2)n1 [Imatinib] + Cc1nc(NC(=O)N2CCC[C@H]2C(N)=O)sc1-c1ccnc(C(C)(C)C(F)(F)F)c1 [Alpelisib] (partner 2 µM)
How it was run: as §1

Imatinib + Linsitinib = compound: Cc1ccc(NC(=O)c2ccc(CN3CCN(C)CC3)cc2)cc1Nc1nccc(-c2cccnc2)n1 [Imatinib] + C[C@]1(O)C[C@@H](c2nc(-c3ccc4ccc(-c5ccccc5)nc4c3)c3c(N)nccn32)C1 [Linsitinib] (partner 1 µM)
How it was run: as §1

**Q.** What does the source list for NCI-H1623?
**A.** relative viability (Imatinib; 0.02 µM): 0.97; relative viability (Imatinib; 0.06325 µM): 0.763; relative viability (Imatinib; 0.2 µM): 0.814; relative viability (Imatinib; 0.6325 µM): 0.956; relative viability (Imatinib; 2 µM): 0.947; relative viability (Imatinib + Tozasertib; first compound 0.02 µM): 0.435; relative viability (Imatinib + Tozasertib; first compound 0.06325 µM): 0.488; relative viability (Imatinib + Tozasertib; first compound 0.2 µM): 0.401; relative viability (Imatinib + Tozasertib; first compound 0.6325 µM): 0.451; relative viability (Imatinib + Tozasertib; first compound 2 µM): 0.416; relative viability (Imatinib + Phenformin; first compound 0.02 µM): 0.623; relative viability (Imatinib + Phenformin; first compound 0.06325 µM): 0.601; relative viability (Imatinib + Phenformin; first compound 0.2 µM): 0.535; relative viability (Imatinib + Phenformin; first compound 0.6325 µM): 0.573; relative viability (Imatinib + Phenformin; first compound 2 µM): 0.571; relative viability (Imatinib + Foretinib; first compound 0.02 µM): 0.872; relative viability (Imatinib + Foretinib; first compound 0.06325 µM): 0.811; relative viability (Imatinib + Foretinib; first compound 0.2 µM): 0.749; relative viability (Imatinib + Foretinib; first compound 0.6325 µM): 0.788; relative viability (Imatinib + Foretinib; first compound 2 µM): 0.894; relative viability (Imatinib + Dasatinib; first compound 0.02 µM): 0.552; relative viability (Imatinib + Dasatinib; first compound 0.06325 µM): 0.539; relative viability (Imatinib + Dasatinib; first compound 0.2 µM): 0.482; relative viability (Imatinib + Dasatinib; first compound 0.6325 µM): 0.537; relative viability (Imatinib + Dasatinib; first compound 2 µM): 0.538; relative viability (Imatinib + Luminespib; first compound 0.02 µM): 0.509; relative viability (Imatinib + Luminespib; first compound 0.06325 µM): 0.522; relative viability (Imatinib + Luminespib; first compound 0.2 µM): 0.489; relative viability (Imatinib + Luminespib; first compound 0.6325 µM): 0.569; relative viability (Imatinib + Luminespib; first compound 2 µM): 0.467; relative viability (Imatinib + OSI-027; first compound 0.02 µM): 0.453; relative viability (Imatinib + OSI-027; first compound 0.06325 µM): 0.453; relative viability (Imatinib + OSI-027; first compound 0.2 µM): 0.386; relative viability (Imatinib + OSI-027; first compound 0.6325 µM): 0.431; relative viability (Imatinib + OSI-027; first compound 2 µM): 0.417

**Q.** What does the source list for A549?
**A.** relative viability (Imatinib; 0.02 µM): 1; relative viability (Imatinib; 0.06325 µM): 0.846; relative viability (Imatinib; 0.2 µM): 1.19; relative viability (Imatinib; 0.6325 µM): 0.973; relative viability (Imatinib; 2 µM): 0.99; relative viability (Imatinib + Decitabine; first compound 0.02 µM): 0.287; relative viability (Imatinib + Decitabine; first compound 0.2 µM): 0.355; relative viability (Imatinib + Decitabine; first compound 0.6325 µM): 0.32; relative viability (Imatinib + Decitabine; first compound 2 µM): 0.222; relative viability (Imatinib + Pictilisib; first compound 0.02 µM): 0.729; relative viability (Imatinib + Pictilisib; first compound 0.06325 µM): 0.703; relative viability (Imatinib + Pictilisib; first compound 0.2 µM): 0.545; relative viability (Imatinib + Pictilisib; first compound 0.6325 µM): 0.553; relative viability (Imatinib + Pictilisib; first compound 2 µM): 0.466; relative viability (Imatinib + Phenformin; first compound 0.02 µM): 0.178; relative viability (Imatinib + Phenformin; first compound 0.2 µM): 0.154; relative viability (Imatinib + Phenformin; first compound 0.6325 µM): 0.159; relative viability (Imatinib + Phenformin; first compound 2 µM): 0.135; relative viability (Imatinib + Lapatinib; first compound 0.02 µM): 1.09; relative viability (Imatinib + Lapatinib; first compound 0.06325 µM): 1.13; relative viability (Imatinib + Lapatinib; first compound 0.2 µM): 1.11; relative viability (Imatinib + Lapatinib; first compound 0.6325 µM): 1.07; relative viability (Imatinib + Lapatinib; first compound 2 µM): 0.99; relative viability (Imatinib + Navitoclax; first compound 0.02 µM): 1.31; relative viability (Imatinib + Navitoclax; first compound 0.06325 µM): 1.53; relative viability (Imatinib + Navitoclax; first compound 0.2 µM): 1.55; relative viability (Imatinib + Navitoclax; first compound 0.6325 µM): 1.18; relative viability (Imatinib + Navitoclax; first compound 2 µM): 1.17; relative viability (Imatinib + Olaparib; first compound 0.02 µM): 0.472; relative viability (Imatinib + Olaparib; first compound 0.2 µM): 0.299; relative viability (Imatinib + Olaparib; first compound 0.6325 µM): 0.307; relative viability (Imatinib + Olaparib; first compound 2 µM): 0.42; relative viability (Imatinib + Alpelisib; first compound 0.02 µM): 0.793; relative viability (Imatinib + Alpelisib; first compound 0.06325 µM): 0.841; relative viability (Imatinib + Alpelisib; first compound 0.6325 µM): 0.722; relative viability (Imatinib + Alpelisib; first compound 2 µM): 0.949; relative viability (Imatinib + Linsitinib; first compound 0.02 µM): 0.673; relative viability (Imatinib + Linsitinib; first compound 0.2 µM): 0.636; relative viability (Imatinib + Linsitinib; first compound 0.6325 µM): 0.699; relative viability (Imatinib + Linsitinib; first compound 2 µM): 0.753
